Data taken from PubChem BioAssay AID1919001 (Molecular Pharmacology Branch, DTP, NCI, 2023).

System: 699152-130-R-J1-PDC complex spheroid growth
Test: Anticancer human tumor 699152-130-R-J1-PDC patient-derived pancreatic carcinoma cell line growth inhibition [AhR]
Settings: for IC50: curve of first compound; for viability, T/C: stronger effect = lower value
Outline: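 Spheroids combined tumor cells with HUVEC endothelial cells and human MSCs as stroma. AhR antagonists were paired with standard or investigational drugs, each dosed in half-log steps down from near clinical Cmax, or from 10 microM where Cmax was unknown.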
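Note: compound exposure lasted 7 days after spheroids had grown for 3 days.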

- IC50 (second compound 0.1 µM): > 10 µM
- IC50 (second compound 0.316 µM): > 10 µM
- IC50 (second compound 1 µM): > 10 µM
- IC50 (second compound 3.16 µM): > 10 µM
- IC50 (second compound 10 µM): < 0.0316 µM
SMILES: CC(C)c1c(-c2ccccc2)nc2c(C#N)c[nH]n2c1=O + Cc1cncc(-c2nc(NCCc3c[nH]c4ccccc34)c3ncn(C(C)C)c3n2)c1
- viability, T/C (second compound 0.1 µM, first compound 0.0316 µM): 98.9%
- viability, T/C (second compound 0.1 µM, first compound 0.1 µM): 103%
- viability, T/C (second compound 0.1 µM, first compound 0.316 µM): 101%
- viability, T/C (second compound 0.1 µM, first compound 1 µM): 107%
- viability, T/C (second compound 0.1 µM, first compound 3.16 µM): 107%
- viability, T/C (second compound 0.1 µM, first compound 10 µM): 111%
- viability, T/C (second compound 0.316 µM, first compound 0.0316 µM): 104%
- viability, T/C (second compound 0.316 µM, first compound 0.1 µM): 109%
- viability, T/C (second compound 0.316 µM, first compound 0.316 µM): 101%
- viability, T/C (second compound 0.316 µM, first compound 1 µM): 116%
- viability, T/C (second compound 0.316 µM, first compound 3.16 µM): 96.4%
- viability, T/C (second compound 0.316 µM, first compound 10 µM): 96.8%
- viability, T/C (second compound 1 µM, first compound 0.0316 µM): 118%
- viability, T/C (second compound 1 µM, first compound 0.1 µM): 118%
- viability, T/C (second compound 1 µM, first compound 0.316 µM): 121%
- viability, T/C (second compound 1 µM, first compound 1 µM): 125%
- viability, T/C (second compound 1 µM, first compound 3.16 µM): 108%
- viability, T/C (second compound 1 µM, first compound 10 µM): 101%
- viability, T/C (second compound 3.16 µM, first compound 0.0316 µM): 60.4%
- viability, T/C (second compound 3.16 µM, first compound 0.1 µM): 66.4%
- viability, T/C (second compound 3.16 µM, first compound 0.316 µM): 65%
- viability, T/C (second compound 3.16 µM, first compound 1 µM): 58.9%
- viability, T/C (second compound 3.16 µM, first compound 3.16 µM): 58.2%
- viability, T/C (second compound 3.16 µM, first compound 10 µM): 66.4%
- viability, T/C (second compound 10 µM, first compound 0.0316 µM): 4.82%
- viability, T/C (second compound 10 µM, first compound 0.1 µM): 4.89%
- viability, T/C (second compound 10 µM, first compound 0.316 µM): 5.56%
- viability, T/C (second compound 10 µM, first compound 1 µM): 4.11%
- viability, T/C (second compound 10 µM, first compound 3.16 µM): 4.63%
- viability, T/C (second compound 10 µM, first compound 10 µM): 6.54%
